Here are results for seven compounds from patent US5914244A, “UL97 fusion proteins and methods of use” (priority 1997, dated 1999).

The target of assay [1] is T1, GST-UL97 fusion protein (glutathione-S-transferase fused to wild-type UL97 protein kinase of CMV strain AD169) (Human cytomegalovirus, UniProt P16788).
T1 construct: degradation products of the full length GST-UL97 fusion proteins; made in house; host or cells: Spodoptera frugiperda Sf21 cells infected with recombinant baculovirus BVGSTUL97
T1 sequence (P16788 whole entry, the tested form may be a part): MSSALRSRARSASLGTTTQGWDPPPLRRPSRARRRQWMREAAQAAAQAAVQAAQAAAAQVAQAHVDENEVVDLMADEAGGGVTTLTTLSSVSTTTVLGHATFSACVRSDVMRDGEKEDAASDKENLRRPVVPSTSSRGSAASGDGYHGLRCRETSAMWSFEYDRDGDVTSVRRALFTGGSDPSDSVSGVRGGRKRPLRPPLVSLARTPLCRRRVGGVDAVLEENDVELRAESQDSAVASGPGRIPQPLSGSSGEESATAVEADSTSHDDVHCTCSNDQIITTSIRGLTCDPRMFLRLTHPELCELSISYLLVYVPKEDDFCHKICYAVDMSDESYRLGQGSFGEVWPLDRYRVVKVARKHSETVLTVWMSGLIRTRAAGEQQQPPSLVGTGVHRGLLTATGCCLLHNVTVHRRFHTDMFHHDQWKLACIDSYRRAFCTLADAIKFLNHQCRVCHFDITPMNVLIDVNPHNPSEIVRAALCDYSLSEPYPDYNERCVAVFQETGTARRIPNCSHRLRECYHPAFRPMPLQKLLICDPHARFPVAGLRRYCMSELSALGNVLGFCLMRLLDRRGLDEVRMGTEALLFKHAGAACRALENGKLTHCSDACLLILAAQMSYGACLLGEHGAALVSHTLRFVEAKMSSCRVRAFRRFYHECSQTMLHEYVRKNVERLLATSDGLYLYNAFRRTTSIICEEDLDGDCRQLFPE
Description: biochemical. In kind it is biochemical. The note with it: for inhibition at 10 µM: read-out: reduction / inhibition of histone phosphorylation. As for the experimental part:
(§1) Protein samples were added to 20 μl of reaction buffer containing 50 mM Tris HCl pH 9.0, 10 mM MgCl2, 5 μM ATP, 2 mM DTT, 1 M NaCl and 5 μCi γ^32 P-ATP (unless otherwise stated). After incubation at 37° C. for 30 min (unless otherwise stated), the reactions were terminated by addition of 20 μl of 2× Laemmli sample buffer to the sample and boiling for 3 min. Phosphorylated proteins were resolved by electrophoresis on 10% SDS-PAGE gels and detected by autoradiography. In order to quantitate the level of phosphorylation, the region of the gel corresponding to the labelled protein was excised and the Cerenkov radioactivity was counted. For assay of extracts of insect cells infected with BVUL97 and related recombinant viruses, 2×10^7 infected or mock-infected cells were broken by sonication in 1 ml of ice-cold lysis buffer B (50 mM Tris-HCl pH 7.6, 100 mM NaCl, 5 mM MgCl2, 0.1% NP-40, 10% glycerol, […] and 1 mM PMSF). Insoluble material was removed by centrifugation at 12,000×g for 5 minutes.
Exogenous UL97 substrates identified in the substrate assay are used to detect agents which affect UL97 protein kinase activity. […] In a typical reaction, 0.8 μg/μl histone was dissolved in 20 μl reaction buffer, and the reaction was initiated by addition of 1.9 ng/μl GST-UL97. Following a 30 min incubation at 37° C., the reaction was terminated by the addition of 2× Laemmli sample buffer to the sample and boiling for 3 min. Proteins were separated on 15% SDS-PAGE gels, and phosphorylation was detected by autoradiography.
In this assay, an agent which may be an inhibitor or an activator of UL97 is added to the phosphorylation reaction, and the reaction is allowed to proceed. The amount of phosphorylation is then measured, to see if the agent increases or decreases UL97-mediated histone phosphorylation.

Assay [2] has as its target T1, GST-UL97 fusion protein (glutathione-S-transferase fused to wild-type UL97 protein kinase of CMV strain AD169). Description: GST-UL97 autophosphorylation protein kinase assay (Km by Lineweaver-Burk plot). In kind it is biochemical. As for the experimental part: as §1
The Michaelis or apparent dissociation constant (Km) for GST-UL97 was determined using a Lineweaver-Burk plot. Kinase reactions (enzyme concentration, 4.7 ng/μl) were carried out in 200 μl standard assay buffer. […] Radiolabelled GST-UL97 was separated on 10% SDS-PAGE gels and quantified by Cerenkov count. […]

Where two headings read alike, the source gives them in different places.

For `O=c1c(O)c(-c2ccc(O)c(O)c2)oc2cc(O)cc(O)c12` [Quercetin], in assay [1] (addition at 10 μM, histone phosphorylation, none = 100, read-out: Activity (%)), the activity at 10 µM was determined as 28%. Moreover, the inhibition at 10 µM in assay [1] (agent at 10 μM) was above 70%.
As for `Nc1ncnc2c1ncn2[C@@H]1O[C@H](COP(=O)(O)OP(=O)(O)O)[C@@H](O)[C@H]1O` [ADP], in assay [1] (addition at 5 μM, histone phosphorylation, none = 100), the activity at 5 µM was 166%. The “effect on UL97 protein kinase activity (in words)” value in assay [1] (histone phosphorylation, ADP at 5 μM) is “stimulatory effect”.
`Nc1nc2c(ncn2[C@@H]2O[C@H](CO)[C@@H](O)[C@H]2O)c(=O)[nH]1` [Guanosine]: the activity at 10 µM in assay [1] was found to be 125%. For the same compound, the “effect on GST-UL97 kinase activity (in words)” value in assay [1] (histone phosphorylation, cAMP 5 μM, guanosine 10 μM (Table 2)) is reported as “Neither cAMP nor guanosine showed an inhibitory effect”.
With `NCCCNCCCCNCCCN` [spermine], the activity at 100 µM in assay [1] worked out at 163%. The “effect on UL97-mediated phosphorylation of histone (in words)” value in assay [1] (0.1 mM spermine) is “enhanced”.
Regarding `Nc1nc2c(ncn2[C@@H]2O[C@H](COP(=O)(O)OP(=O)(O)OP(=O)(O)O)[C@@H](O)[C@H]2O)c(=O)[nH]1` [GTP], in assay [2] (10 mM Mg2+, read-out: Km for GTP as a phosphate donor), the Km turned out to be 4 µM.
Turning to `N#CC(C#N)=Cc1ccc(O)c(O)c1` [Tyrphostin 23], in assay [1], the activity at 10 µM was determined as 27% and the inhibition at 10 µM was determined as 73%.
Regarding `Nc1ncnc2c1ncn2[C@@H]1O[C@H](COP(=O)(O)OP(=O)(O)OP(=O)(O)O)[C@@H](O)[C@H]1O` [ATP], the Km in assay [2] (optimal divalent cation concentration, enzyme 4.7 ng/μl, read-out: Km determined for ATP as substrate) was 2 ± 0.5 µM.
